Measured values published in US10189826B2, “Heterocyclic compounds and methods of use” (Medivation Technologies LLC, priority 2015, dated 2019).
Where a name gives a salt, the structure may show the parent alone. Read-outs that look alike come from different tables or passages of the source.

What was measured:
Assay type in all cases: cell-based
[1] = test system: SREBP-2 transcriptional activity (SREBP2 cleavage) in HepG2_LSSprom cells; test: Luciferase reporter driven by a SREBP-2 specific promoter in HepG2_LSSprom cells; details: for IC50: read-out: SREBP2 Cleavage (IC50 μM) 24 h; for SREBP2 Cleavage (5 μM) (% Inh): medium without FBS
How it was run: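 HepG2_LSSprom cells dosed at 0.625-10 μM in serum-free medium for 6 h (or 24 h), then luciferase luminescence read. Signal normalized to vehicle (100%); IC50 by four-parameter nonlinear fit; five independent experiments, triplicate wells.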

HepG2_LSSprom cells = test: Cytotoxicity assay (LDH release) in HepG2_LSSprom cells; details: for Cytotoxicity (5 μM) %: LDH release relative to lysis control
How it was run: (§1)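 HepG2_LSSprom cells exposed to compound at 0.625–10 μM in serum-free medium for 6 h or 24 h. Medium LDH measured colorimetrically at 490 nm; release expressed as % of lysis control after vehicle subtraction, negatives set to 0; five independent experiments, triplicate wells, mean±SEM.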

[2] = test system: SREBP2 cleavage in HEPG2 cells; test: SREBP2 cleavage in HEPG2 cells (Western blot normalized to actin); details: 20 μM, 1 day, DMEM without FBS
Protocol: Average SREBP2 cleavage in HEPG2 cells was measured in the presence of compounds disclosed in Table 1. HepG2 cells were seeded at 500,000 cells per well in 6-well plates in DMEM supplemented with 10% FBS. After 2 days, cells were treated with compounds (20 μM) for 1 day in DMEM without FBS. Western blots were normalized with respect to actin.

HepG2 cells = test: Cell viability in HepG2 cells (MTS); details: 20 μM, 3 days, DMEM without FBS
Protocol: For viability measurements, HepG2 cells were seeded at 5,000 cells per well in 96-well plates in DMEM supplemented with 10% FBS. After 1 day in culture, cells were treated with compounds (20 μM) for 3 days in DMEM without FBS. Viability was measured by MTS. Treatment with compounds was carried out in medium without FBS, and viability was measured by MTS.

[3] = Cytotoxicity assay (LDH release) in HepG2_LSSprom cells; details: human, HepG2 LSSprom cells, 24 h treatment, LDH release
How it was run: as §1

[4] = 24 h, 24 h treatment, HepG2_LSSprom cells

| IC50 [1, 4] [µM] | Compound | IC50 at 24 h [3] [µM] | also measured |
| --- | --- | --- | --- |
| 0.03 | CC(C)(C)c1cc(-c2csc(-c3ccc(C(=O)N4CCC[C@@H](O)C4)cc3Cl)c2)ccn1 [Compound 89a, (R)-(4-(4-(2-(tert-butyl)pyridin-4-yl)thiophen-2-yl)-3-chlorophenyl)(3-hydroxypiperidin-1-yl)methanone] | > 10 | – |
| 0.02 | CC(C)(C)c1cc(-c2csc(-c3ccc(C(=O)N4CCC[C@H](O)C4)cc3Cl)c2)ccn1 [Compound 89b, (S)-(4-(4-(2-(tert-butyl)pyridin-4-yl)thiophen-2-yl)-3-chlorophenyl)(3-hydroxypiperidin-1-yl)methanone] | > 10 | – |
| 1.4 | CC(C)(C)c1cc(-c2csc(-c3ccc(C(=O)N4CC[C@@H](N)C4)cc3Cl)c2)ccn1 [Compound 96a, (3R)-1-{4-[4-(2-tert-butylpyridin-4-yl)thiophen-2-yl]-3-chlorobenzoyl}pyrrolidin-3-amine] | > 10 | – |
| 0.6 | CC(C)(C)c1cc(-c2csc(-c3ccc(C(=O)N4CC[C@H](N)C4)cc3Cl)c2)ccn1 [Compound 96b, (3S)-1-{4-[4-(2-tert-butylpyridin-4-yl)thiophen-2-yl]-3-chlorobenzoyl}pyrrolidin-3-amine] | > 10 | – |
| 0.15 | CC(C)(C)c1cc(-c2csc(-c3ccc(C(=O)N4CCC[C@](C)(O)C4)cc3Cl)c2)ccn1 [Compound 101a, [4-[4-(2-tert-butyl-4-pyridyl)-2-thienyl]-3-chloro-phenyl]-[(3S)-3-hydroxy-3-methyl-1-piperidyl] methanone hydrochloride] | > 10 | – |
| 0.025 | CC(C)(C)c1cc(-c2csc(-c3ccc(C(=O)N4CCC[C@](C)(O)C4)cc3Cl)c2)ccn1 [Compound 101b, (3S)-1-{4-[4-(2-tert-butylpyridin-4-yl)thiophen-2-yl]-3-chlorobenzoyl}-3-methylpiperidin-3-ol] | > 10 | – |

Further lines, the molecule ahead of its results:

| Compound | IC50 [1, 4] [µM] | IC50 at 24 h [3] [µM] | also measured |
| --- | --- | --- | --- |
| CC1(N)CCCN(C(=O)c2ccc(-c3cc(-c4ccnc(C(C)(C)C)c4)cs3)c(Cl)c2)C1 (single isomer, unassigned) [Compound 95b] | – | – | IC50 ([1]; 24 h treatment, HepG2_LSSprom cells): 0.65 µM; IC50 (HepG2_LSSprom cells; 24 h treatment, LDH release): > 10 µM |
| CCCc1cc(-c2nc(-c3ccc(C(=O)N(C)C)cc3)cs2)ccn1 [Compound 2, N,N-dimethyl-4-[2-(2-propylpyridin-4-yl)-1,3-thiazol-4-yl]benzamide] | – | – | Average SREBP2 cleavage (% Inhibition, n = 3) [2]: 73.85 % Inhibition; Average Viability (% Inhibition, n = 3) (HepG2 cells): 30.73 % Inhibition |
| CCCc1cc(-c2nc(-c3ccc(C(N)=O)cc3)cs2)ccn1 [Compound 3, 4-[2-(2-propylpyridin-4-yl)-1,3-thiazol-4-yl]benzamide] | – | – | Average SREBP2 cleavage (% Inhibition, n = 3) [2]: 12.18 % Inhibition; Average Viability (% Inhibition, n = 3) (HepG2 cells): 19.52 % Inhibition |
| O=C(c1ccc(-c2csc(-c3cccc4[nH]ccc34)n2)c(Cl)c1)N1CCCCC1 [Compound 4, [3-chloro-4-[2-(1H-indol-4-yl)thiazol-4-yl]phenyl]-(1-piperidyl)methanone] | – | – | SREBP2 Cleavage (5 μM) (% Inh) ([1]; HepG2_LSSprom cells): 48 % Inh; Cytotoxicity (5 μM) % (HepG2_LSSprom cells): 1% |
| CC(C)(C)c1cc(-c2nc(-c3ccc(C(=O)N4CCCCC4)cc3Cl)cs2)ccn1 [Compound 5, 2-tert-butyl-4-{4-[2-chloro-4-(piperidine-1-carbonyl)phenyl]-1,3-thiazol-2-yl}pyridine] | – | – | SREBP2 Cleavage (5 μM) (% Inh) ([1]; HepG2_LSSprom cells): 71 % Inh; Cytotoxicity (5 μM) % (HepG2_LSSprom cells): 4% |
| CN(C)C(=O)c1ccc(-c2csc(-c3cccc4[nH]ccc34)n2)c(Cl)c1 [Compound 6, 3-chloro-4-[2-(1H-indol-4-yl)-1,3-thiazol-4-yl]-N,N-dimethylbenzamide] | – | – | SREBP2 Cleavage (5 μM) (% Inh) ([1]; HepG2_LSSprom cells): 41 % Inh; Cytotoxicity (5 μM) % (HepG2_LSSprom cells): 0% |
| CN(C)C(=O)c1ccc(-c2csc(-c3ccnc(N4CCCCC4)c3)n2)c(Cl)c1 [Compound 9, 3-chloro-N,N-dimethyl-4-{2-[2-(piperidin-1-yl)pyridin-4-yl]-1,3-thiazol-4-yl}benzamide] | – | – | SREBP2 Cleavage (5 μM) (% Inh) ([1]; HepG2_LSSprom cells): 52 % Inh; Cytotoxicity (5 μM) % (HepG2_LSSprom cells): 1% |
| CC(C)(C)OC(=O)NC1CCN(C(=O)c2ccc(-c3csc(-c4ccnc(C(C)(C)C)c4)c3)c(Cl)c2)C1 (stereo not shown) [Compound 90] | 0.37 | > 10 | – |
| CC(C)(C)c1cc(-c2csc(-c3ccc(C(=O)N4CCCC(C(=O)O)C4)cc3Cl)c2)ccn1 (stereo not shown) [Compound 91] | 0.72 | > 10 | – |
| CC(C)(C)c1cc(-c2csc(-c3ccc(C(=O)N4CCc5nc[nH]c5C4)cc3Cl)c2)ccn1 [Compound 92, 2-tert-butyl-4-[5-(2-chloro-4-{3H,4H,5H,6H,7H-imidazo[4,5-c]pyridine-5-carbonyl}phenyl)thiophen-3-yl]pyridine] | 0.74 | > 10 | – |
| CC(C)(C)c1cc(-c2csc(-c3ccc(C(=O)N4CCNC(=O)C4)cc3Cl)c2)ccn1 [Compound 93, 4-{4-[4-(2-tert-butylpyridin-4-yl)thiophen-2-yl]-3-chlorobenzoyl}piperazin-2-one] | 0.41 | > 10 | – |
| CC(C)(C)c1cc(-c2csc(-c3ccc(C(=O)N4CCCC(N5CCNC5=O)C4)cc3Cl)c2)ccn1 (stereo not shown) [Compound 94, 1-[1-{4-[4-(2-tert-butylpyridin-4-yl)thiophen-2-yl]-3-chlorobenzoyl}piperidin-3-yl]imidazolidin-2-one] | 0.52 | > 10 | – |
| CC1(N)CCCN(C(=O)c2ccc(-c3cc(-c4ccnc(C(C)(C)C)c4)cs3)c(Cl)c2)C1 (stereo not shown) [Compound 95, 1-{4-[4-(2-tert-butylpyridin-4-yl)thiophen-2-yl]-3-chlorobenzoyl}-3-methylpiperidin-3-amine] | 0.42 | > 10 | – |
| CC(C)(C)c1cc(-c2csc(-c3ccc(C(=O)N4CCCc5ncccc54)cc3Cl)c2)ccn1 [Compound 97, 1-{4-[4-(2-tert-butylpyridin-4-yl)thiophen-2-yl]-3-chlorobenzoyl}-1,2,3,4-tetrahydro-1,5-naphthyridine] | 0.17 | > 3 | – |
| CC(C)(C)c1cc(-c2nc(-c3ccc(C(=O)N4CCC(O)CC4)cc3Cl)c[nH]2)ccn1 [Compound 98, 1-{4-[2-(2-tert-butylpyridin-4-yl)-1H-imidazol-4-yl]-3-chlorobenzoyl}piperidin-4-ol] | – | > 10 | IC50 ([1]; 24 h): 0.99 µM |
| COC1CCCN(C(=O)c2ccc(-c3cc(-c4ccnc(C(C)(C)C)c4)cs3)c(Cl)c2)C1 (stereo not shown) [Compound 99, 2-tert-butyl-4-{5-[2-chloro-4-(3-methoxypiperidine-1-carbonyl)phenyl]thiophen-3-yl}pyridine] | – | > 10 | IC50 ([1]; 24 h): 0.051 µM |
| CC1(O)CCN(C(=O)c2ccc(-c3cc(-c4ccnc(C(C)(C)C)c4)cs3)c(Cl)c2)CC1 [Compound 100, 1-{4-[4-(2-tert-butylpyridin-4-yl)thiophen-2-yl]-3-chlorobenzoyl}-4-methylpiperidin-4-ol] | 0.74 | > 10 | – |
| CC(C)CCn1nccc1-c1cc(-c2ccc(C(=O)N3CCOCC3)cc2Cl)cs1 [Compound 102, [3-chloro-4-[5-(2-isopentylpyrazol-3-yl)-3-thienyl]phenyl]-morpholino-methanone] | 0.44 | > 10 | – |
| CC(C)CCn1nccc1-c1cc(-c2ccc(C(=O)N3CCC(F)(F)CC3)cc2Cl)cs1 [Compound 103, [3-chloro-4-[5-(2-isopentylpyrazol-3-yl)-3-thienyl]phenyl]-(4,4-difluoro-1-piperidyl)methanone] | 0.69 | > 10 | – |
| CC(C)CCn1nccc1-c1csc(-c2ccc(C(=O)N3CCCC(O)C3)cc2Cl)c1 (stereo not shown) [Compound 104, [3-chloro-4-[4-(2-isopentylpyrazol-3-yl)-2-thienyl]phenyl]-(3-hydroxy-1-piperidyl)methanone] | 0.13 | > 10 | – |
